# Tested on: 317291-083-R-J1-PDC complex spheroids, viability
# Test: Anticancer human tumor 317291-083-R-J1-PDC patient-derived soft tissue sarcoma cell line growth inhibition [GQUAD]
# Conditions: for IC50: curve of first compound; for viability, T/C: stronger effect = lower value
# How it was run: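 Multi-cell-type spheroids of tumor cells with HUVEC and mesenchymal stem cells, treated with drug combinations. Concentrations descend in half-log steps from near clinical Cmax, or from 10 microM where Cmax is unknown; viability read-out.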
# [1] = second compound 0.0316 µM, first compound 0.0316 µM
# [2] = second compound 0.0316 µM, first compound 0.1 µM
# [3] = second compound 0.0316 µM, first compound 0.316 µM
# [4] = second compound 0.0316 µM, first compound 1 µM
# [5] = second compound 0.0316 µM, first compound 3.16 µM
# [6] = second compound 0.0316 µM, first compound 10 µM
# [7] = second compound 0.1 µM, first compound 0.0316 µM
# [8] = second compound 0.1 µM, first compound 0.1 µM
# [9] = second compound 0.1 µM, first compound 0.316 µM
# [10] = second compound 0.1 µM, first compound 1 µM
# [11] = second compound 0.1 µM, first compound 3.16 µM
# [12] = second compound 0.1 µM, first compound 10 µM
# [13] = second compound 0.316 µM, first compound 0.0316 µM
# [14] = second compound 0.316 µM, first compound 0.1 µM
# [15] = second compound 0.316 µM, first compound 0.316 µM
# [16] = second compound 0.316 µM, first compound 1 µM
# [17] = second compound 0.316 µM, first compound 3.16 µM
# [18] = second compound 0.316 µM, first compound 10 µM
# [19] = second compound 1 µM, first compound 0.0316 µM
# [20] = second compound 1 µM, first compound 0.1 µM
# [21] = second compound 1 µM, first compound 0.316 µM
# [22] = second compound 1 µM, first compound 1 µM
# [23] = second compound 1 µM, first compound 3.16 µM
# [24] = second compound 1 µM, first compound 10 µM
# [25] = second compound 3.16 µM, first compound 0.0316 µM
# [26] = second compound 3.16 µM, first compound 0.1 µM
# [27] = second compound 3.16 µM, first compound 0.316 µM
# [28] = second compound 3.16 µM, first compound 1 µM
# [29] = second compound 3.16 µM, first compound 3.16 µM
# [30] = second compound 3.16 µM, first compound 10 µM
# [31] = second compound 10 µM, first compound 0.0316 µM
# [32] = second compound 10 µM, first compound 0.1 µM
# [33] = second compound 10 µM, first compound 0.316 µM
# [34] = second compound 10 µM, first compound 1 µM
# [35] = second compound 10 µM, first compound 3.16 µM
# [36] = second compound 10 µM, first compound 10 µM
# 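Further: spheroids exposed to compounds for one week before readout.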
# 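Wherever viability, T/C is given: percent viability relative to DMSO vehicle wells taken as 100%.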
structure (smiles),measurement,setting,value
CC(=O)O[C@H]1C(=O)[C@@]2(C)[C@H]([C@H](OC(=O)c3ccccc3)[C@]3(O)C[C@H](OC(=O)[C@H](O)[C@@H](NC(=O)c4ccccc4)c4ccccc4)C(C)=C1C3(C)C)[C@]1(OC(C)=O)CO[C@@H]1C[C@@H]2O + Cc1[nH]c2ccc(F)cc2c1-c1nc2c3cccnc3c3ncccc3c2[nH]1,IC50,second compound 0.0316 µM,< 0.0316 µM
same,IC50,second compound 0.1 µM,< 0.0316 µM
same,IC50,second compound 0.316 µM,< 0.0316 µM
same,IC50,second compound 1 µM,< 0.0316 µM
same,IC50,second compound 3.16 µM,< 0.0316 µM
same,IC50,second compound 10 µM,< 0.0316 µM
same,"viability, T/C",[1],45.6%
same,"viability, T/C",[2],19.7%
same,"viability, T/C",[3],15.5%
same,"viability, T/C",[4],16.5%
same,"viability, T/C",[5],13.9%
same,"viability, T/C",[6],12.1%
same,"viability, T/C",[7],46.6%
same,"viability, T/C",[8],21.5%
same,"viability, T/C",[9],12.2%
same,"viability, T/C",[10],17.6%
same,"viability, T/C",[11],15.1%
same,"viability, T/C",[12],16.6%
same,"viability, T/C",[13],40%
same,"viability, T/C",[14],18.9%
same,"viability, T/C",[15],16.8%
same,"viability, T/C",[16],15.3%
same,"viability, T/C",[17],13.7%
same,"viability, T/C",[18],16.1%
same,"viability, T/C",[19],32.9%
same,"viability, T/C",[20],18%
same,"viability, T/C",[21],17.2%
same,"viability, T/C",[22],17.7%
same,"viability, T/C",[23],16.1%
same,"viability, T/C",[24],12.7%
same,"viability, T/C",[25],20.1%
same,"viability, T/C",[26],11%
same,"viability, T/C",[27],12.4%
same,"viability, T/C",[28],11.6%
same,"viability, T/C",[29],10.7%
same,"viability, T/C",[30],8.8%
same,"viability, T/C",[31],27%
same,"viability, T/C",[32],17.1%
same,"viability, T/C",[33],15.2%
same,"viability, T/C",[34],14.7%
same,"viability, T/C",[35],12.7%
same,"viability, T/C",[36],12.5%
O=C(NO)c1cnc(N2CCN(S(=O)(=O)c3ccc4ccccc4c3)CC2)nc1 + Cc1cnc(CNC(=O)c2c(=O)c3ccc(N4CCCN(C)CC4)nc3n3c2sc2ccccc23)cn1,IC50,second compound 0.0316 µM,0.109 µM
same,IC50,second compound 0.1 µM,< 0.0316 µM
same,IC50,second compound 0.316 µM,< 0.0316 µM
same,IC50,second compound 1 µM,< 0.0316 µM
same,IC50,second compound 3.16 µM,< 0.0316 µM
same,IC50,second compound 10 µM,< 0.0316 µM
same,"viability, T/C",[1],82.5%
same,"viability, T/C",[2],53.5%
same,"viability, T/C",[3],7.38%
same,"viability, T/C",[4],0.63%
same,"viability, T/C",[5],0.05%
same,"viability, T/C",[6],0.08%
same,"viability, T/C",[7],47.2%
same,"viability, T/C",[8],41.8%
same,"viability, T/C",[9],6.03%
same,"viability, T/C",[10],0.12%
same,"viability, T/C",[11],0.03%
same,"viability, T/C",[12],0.29%
same,"viability, T/C",[13],44.2%
same,"viability, T/C",[14],45.2%
same,"viability, T/C",[15],5.28%
same,"viability, T/C",[16],0.07%
same,"viability, T/C",[17],0.02%
same,"viability, T/C",[18],0.62%
same,"viability, T/C",[19],43.9%
same,"viability, T/C",[20],15.2%
same,"viability, T/C",[21],2.02%
same,"viability, T/C",[22],0.07%
same,"viability, T/C",[23],0.04%
same,"viability, T/C",[24],0.08%
same,"viability, T/C",[25],8.49%
same,"viability, T/C",[26],0.73%
same,"viability, T/C",[27],1.12%
same,"viability, T/C",[28],1.06%
same,"viability, T/C",[29],0.08%
same,"viability, T/C",[30],0.11%
same,"viability, T/C",[31],0.07%
same,"viability, T/C",[32],0.11%
same,"viability, T/C",[33],0.16%
same,"viability, T/C",[34],0.1%
same,"viability, T/C",[35],0.18%
same,"viability, T/C",[36],0.18%
C#Cc1c(F)ccc2cc(O)cc(-c3ncc4c(N5CC6CCC(C5)N6)nc(OCC56CCCN5CC(F)C6)nc4c3F)c12 (stereo unspecified) + Cc1cnc(CNC(=O)c2c(=O)c3ccc(N4CCCN(C)CC4)nc3n3c2sc2ccccc23)cn1,IC50,second compound 0.0316 µM,> 10 µM
same,IC50,second compound 0.1 µM,> 10 µM
same,IC50,second compound 0.316 µM,< 0.0316 µM
same,IC50,second compound 1 µM,< 0.0316 µM
same,IC50,second compound 3.16 µM,< 0.0316 µM
same,IC50,second compound 10 µM,< 0.0316 µM
same,"viability, T/C",[1],107%
same,"viability, T/C",[2],104%
same,"viability, T/C",[3],99.9%
same,"viability, T/C",[4],105%
same,"viability, T/C",[5],90.6%
same,"viability, T/C",[6],66.5%
same,"viability, T/C",[7],89%
same,"viability, T/C",[8],74.4%
same,"viability, T/C",[9],57.7%
same,"viability, T/C",[10],87.2%
same,"viability, T/C",[11],76%
same,"viability, T/C",[12],80.9%
same,"viability, T/C",[13],45.3%
same,"viability, T/C",[14],52.1%
same,"viability, T/C",[15],53.3%
same,"viability, T/C",[16],36.7%
same,"viability, T/C",[17],51.7%
same,"viability, T/C",[18],51.8%
same,"viability, T/C",[19],31.4%
same,"viability, T/C",[20],36.5%
same,"viability, T/C",[21],38.9%
same,"viability, T/C",[22],24.8%
same,"viability, T/C",[23],27.4%
same,"viability, T/C",[24],21%
same,"viability, T/C",[25],14.7%
same,"viability, T/C",[26],18.3%
same,"viability, T/C",[27],31.5%
same,"viability, T/C",[28],14.1%
same,"viability, T/C",[29],22.6%
same,"viability, T/C",[30],19.1%
same,"viability, T/C",[31],38.2%
same,"viability, T/C",[32],22.9%
same,"viability, T/C",[33],10.5%
same,"viability, T/C",[34],13.7%
same,"viability, T/C",[35],11.1%
same,"viability, T/C",[36],3.98%

# Source: PubChem BioAssay AID2060497 (Molecular Pharmacology Branch, DTP, NCI, 2025)
